Experimental data: US9889088B2, “Alpha-2 adrenergic agonist having long duration of intraocular pressure-lowering effect” (priority 2010, dated 2018)

Assays:
[1] = tested on: intraocular pressure of normotensive Dutch-Belted male rabbits; experiment: Intraocular pressure lowering after a single topical eye drop in normotensive rabbits; format: in vivo, rabbit; conditions: for time for which the decrease in intraocular pressure is maintained: single 50 μl drop, treated eye; for sedation, ocular irritation, and changes in pupil diameter: single topical drop, observed throughout the experiment
Protocol: The free base of 4-bromo-N-imidazolidin-2-ylidene-1-H-benzimidazol-5-amine was dissolved in sterile distilled water, hydrochloric acid was added and the hydrochloric salt of the compound was formed in situ. The solution was titrated with sodium hydroxide until the pH of the solution reached 8.0. […] The experimental animals used were normotensive Dutch-Belted male rabbits. A single drop (50 μl) of the drug formulation was administered topically by pipette onto the right eye (treated eye) at approximately 07:00 AM hours. The intraocular pressure of the rabbits (treated and untreated eyes) was measured 0 hours before and at 0.5, 1, 2, 3, 4, 6 and 8 hours after topical eye drop single administration. The intraocular pressure taken before the eye drop administration (0 hours) was used as a baseline value. Prior to the tonometric measurements, 0.05% proparacaine (50 μl) was administered to each eye. Tonometric intraocular pressure measurements were obtained with a Mentor Pneumotonometer. Additionally, all studies were masked. All animals were examined for sedation, ocular irritation, and changes in pupil diameter throughout the course of the experiments.
The free base of 4-bromo-N-imidazolidin-2-ylidene-1-H-benzimidazol-5-amine was dissolved in sterile distilled water, hydrochloric acid was added and the hydrochloric salt of the compound was formed in situ. The solution was titrated with sodium hydroxide until the pH of the solution reached 8.0. The final concentration of 4-bromo-N-imidazolidin-2-ylidene-1-H-benzimidazol-5-amine is 0.2% by weight. The experimental animals used were normotensive Dutch-Belted male rabbits. A single drop (50 μl) of the drug formulation was administered topically by pipette onto the right eye (treated eye) at approximately 07:00 AM hours. The intraocular pressure of the rabbits (treated and untreated eyes) was measured 0 hours before and at 2, 4 and 6 hours after topical eye drop single administration. The intraocular pressure taken before the eye drop administration (0 hours) was used as a baseline value. Prior to the tonometric measurements, 0.05% proparacaine (50 μl) was administered to each eye. Tonometric intraocular pressure measurements were obtained with a Mentor Pneumotonmeter. Additionally, all studies were masked. All animals were examined for sedation, ocular irritation, and changes in pupil diameter throughout the course of the experiments.

[2] = Pharmacokinetic analysis of ocular tissues and plasma after topical dosing in rabbits; format: in vivo, rabbit
Protocol: Twenty-three Dutch Belted female rabbits (group 1) weighing approximately 1.75-2.34 kg were dosed with 35 μL of the formulation to the left eye. At different time points, prior to euthanasia, approximately 0.5 mL of blood was collected via central ear artery and placed in EDTA tubes. Blood samples were kept on ice during the duration of sample collection and centrifuged to harvest plasma. Animals were euthanized with 1 mL of Euthasol intravenously and the ocular tissues (aqueous humor, cornea, conjunctiva, iris-ciliary body, retina, and sclera) were collected from left and right eyes. All ocular tissues samples were placed in vials and kept on dry ice during the duration of sample collection. Ocular tissues were also collected from the control group (group 2) which received no dose. These ocular tissues served as analytical control. All ocular tissue and plasma samples were stored at or below −60° C. until bioanalysis.
(Acheampong et al. (Drug Metabolism and Disposition, Vol 23, No. 7, p 708-712).

[3] = tested on: intraocular pressure of hypertensive monkeys; experiment: Intraocular pressure lowering in hypertensive monkeys; format: in vivo, monkey; conditions: composition of Example 1 (FIG. 4 legend: 0.5% solution), compared to placebo
[4] = Iris-ciliary body accumulation and melanin binding (pharmacokinetic data); conditions: unpublished pharmacokinetic data
[5] = rats, after oral dose of brimonidine tartrate; Acheampong et al. 2007; cited from earlier work
[6] = Corneal penetration assay
corneal epithelial cells = experiment: Corneal penetration assay
[7] = cited from earlier work; for clearance from the aqueous humor / passage through cornea and sclera: following topical dosing
[8] = stated as found earlier; cited from earlier work

SMILES: Brc1c(N=C2NCCN2)ccc2[nH]cnc12 [4-bromo-N-imidazolidin-2-ylidene-1-H-benzimidazol-5-amine]
- time for which the decrease in intraocular pressure is maintained ([1]; 0.2% by weight solution, topical, FIG. 2): > 6 h
- sedation, ocular irritation, and changes in pupil diameter ([1]; 0.2% by weight solution): None of these effects were observed
- time for which the decrease in intraocular pressure is maintained ([1]; 1% by weight solution, topical, FIG. 1): > 8 h
- sedation, ocular irritation, and changes in pupil diameter ([1]; 1% by weight solution): None of these effects were observed
- time for which sustained levels remain in the aqueous humor ([2]; 35 μL topical to left eye, Dutch Belted female rabbits, FIG. 3A): over 8 hours
- time for which the level is maintained in several ocular tissues ([2]; 35 μL topical to left eye, FIG. 3B): over 8 hrs
- plasma level ([2]; after topical ocular dosing): low and below detectable level
- time for which the decrease in intraocular pressure is maintained [3]: up to 24 hours
- accumulation at the iris-ciliary body [4]: very little accumulation
- melanin binding [4]: no sign of melanin binding
- amount found in urine [5]: trace amounts
- Papp [6]: 0.119 ± 0.01 ×10⁻⁶ cm/s
- penetration of corneal epithelial cells (in words) (corneal epithelial cells): poorly

SMILES: Brc1c(NC2=NCCN2)ccc2nccnc12 [Brimonidine, (5-bromo-quinoxalin-6-yl)-imidazolidin-2-ylidene-amine]
- time in which intraocular pressure returns to baseline ([1]; brimonidine containing composition (0.15% solution per FIG. 1 legend), topical): < 6 h
- time in which levels in the aqueous humor are substantially decreased ([2]; 0.15% brimonidine, similar study done previously, FIG. 3A): 3 h
- clearance from the aqueous humor [7]: rapidly cleared
- passage through cornea and sclera [7]: readily pass through the cornea and sclera
- time in which the level decreases in aqueous humor ([7]; regardless of the dose, Acheampong et al.): three
- accumulation in the iris-ciliary body [8]: accumulate in the iris-ciliary body
- binding to the pigment melanin [8]: high binding
- Papp [6]: 8.57 ± 0.64 ×10⁻⁶ cm/s
- penetration of corneal epithelial cells (in words) (corneal epithelial cells): moderate penetrator

SMILES: OC[C@@H](O)[C@@H](O)[C@H](O)[C@H](O)CO [Compound 3H-mannitol, 3H-mannitol]
- Papp (×10^−6 cm/s) (corneal epithelial cells; permeability coefficient, corneal epithelial cells): 0.512 ± 0.069 ×10^−6 cm/s

SMILES: Nc1cc(Cl)c(N=C2NCCN2)c(Cl)c1 [apraclonidine, 2,6-dichloro-N-imidazolidin-2-ylidene-benzene-1,4-diamine]
- clearance from the aqueous humor [7]: rapidly cleared
- passage through cornea and sclera [7]: readily pass through the cornea and sclera
- accumulation in the iris-ciliary body [8]: accumulate in the iris-ciliary body
- binding to the pigment melanin [8]: high binding
